According to US6040149A, “Assay for identifying agents which act on the ceramide-activated protein kinase, kinase suppressor of ras, and methods of using said agents” (priority 1997, dated 2000):

Key:
[1] = test system: ceramide-activated protein kinase; test: EGFR peptide phosphorylation by kinase in A-431 microsomal membranes / postnuclear supernatant; assay type: biochemical, human (A-431 epidermoid carcinoma cells)
[2] = test system: ceramide-activated protein kinase; test: CAP kinase activation in HL-60 cells (renaturation and autophosphorylation); assay type: cell-based, human (HL-60 cells); conditions: TPA 100 ng/ml
Experimental: Stimulation of ceramide-activated protein (CAP) kinase by lipid A. On the day of an experiment, HL-60 cells were resuspended (1×10^6 cells ml^-1) into serum-free RPMI 1640 containing 5 μg ml^-1 insulin and transferrin. After 2 h, cells were stimulated with lipid A (Escherichia Coli) or diluent (DMSO, <0.01%). Ceramide-activated protein kinase contained within microsomal membranes was detected by renaturation and autophosphorylation. Briefly, membrane proteins (200 μg per lane) were separated by SDS-PAGE (10%), and the gel was washed with two changes of buffer (50 mM Tris, pH 7.4, 5 mM 2-mercaptoethanol) containing 20% 2-propanol at room temperature for 1 h, and once in buffer without 2-propanol for 1 h. Denaturation was accomplished by incubation of the gel in two changes of 6M guanidinium HCl in wash buffer for 1 h each. Renaturation was accomplished by incubation of the gel overnight at 4° C. in wash buffer containing 0.04% Tween-20. The gel was then equilibrated for 10 min at room temperature in kinase reaction mixture (25 mM HEPES, pH 7.4, 10 mM MgCl2, 0.5 mM EGTA and 5 mM NaF) and [γ-^32 p] ATP (50 μM final concentration; 1000 dpm pmol^-1) was added. Autophosphorylation was terminated by removal of the reaction mixture. The gel was washed with 6 changes of buffer (5% trichloroacetic acid, 1% sodium pyrophosphate) for 2 h and subjected to autoradiography. Top panel--Time course of lipid A activation. Bottom panel--Dose response at 5 minutes of lipid A stimulation. Autoradiograms represent one of three similar studies in both panels A and B.
On the day of an experiment, cells were resuspended (1×10^6 cells ml^-1) into serum-free RPMI 1640 containing 5 μg ml^-1 insulin and transferrin. After 2 h, cells were stimulated with lipid A or diluent (DMSO, <0.01% ). […] The postnuclear supernate was centrifuged at 200,000×g for 30 min and microsomal membranes were resuspended ([…]) into homogenizing buffer. Ceramide-activated protein kinase was detected by renaturation and autophosphorylation. Briefly, membrane proteins (200 μg per lane) were separated by SDS-PAGE (10%), and the gel was washed with two changes of buffer (50 mM Tris, pH 7.4, 5 mM 2-mercaptoethanol) containing 20% 2-propanol at room temperature for 1 h, and once in buffer without 2-propanol for 1 h. Denaturation was accomplished by incubation of the gel in two changes of 6M guanidinium HCl in wash buffer for 1 h each. Renaturation was accomplished by incubation of the gel overnight at 4° C. in wash buffer containing 0.04% Tween-20. The gel was then equilibrated for 10 min at room temperature in kinase reaction mixture (25 mM HEPES, pH 7.4, 10 mM MgCl2, 0.5 mM EGTA and 5 mM NaF) and [γ-^32 P] ATP (50 μM final concentration; 1000 dpm pmol^-1. Autophosphorylation was terminated by removal of the reaction mixture. The gel was washed with 6 changes of buffer (5% trichloracetic acid, 1% sodium pyrophosphate) for 2 h and subjected to autoradiography.
For studies involving activation of ceramide-activated protein kinase by LPS, HL-60 cells (13×10^6 ml^-1) were handled as above, and LPS (Salmonella typhosa, 50 ng ml^-1), recombinant LBP (1.7 μg ml^-1) or both LPS and LBP were added for the times indicated. Isolation of microsomal membranes and autophosphorylation of ceramide-activated protein kinase were performed as above.

[3] = test system: ceramide-activated protein kinase; conditions: ref. [40]; cited from earlier work

In the case of `CCCCCCCCCCCCC/C=C/[C@@H](O)[C@@H](N)CO` [sphingosine], the “EGFR peptide phosphorylation, fold of control” value ([1]; 2 minutes of stimulation, maximal effect for ceramide at 1 μM) is reported as 1.6 fold of control and the “effect on EGFR peptide phosphorylation” value ([1]; words) is reported as “similarly effective”.
For `CCCCCCCCCCCCCC(=O)O[C@@H]1[C@@H](C)[C@@]2(O)[C@@H](C=C(CO)C[C@]3(O)C(=O)C(C)=C[C@@H]23)[C@@H]2C(C)(C)[C@]12OC(C)=O` [TPA, 12-0-tetradecanoylphorbol-13-acetate], the “activation of CAP kinase” value [2] was “did not activate CAP kinase”.
For TNF-α, the “ED50 for stimulation of ceramide-activated protein kinase in intact cells” value [3] is given as 0.2 nM.
